Assay results taken from patent US8124361B2, “Methods of screening for sweet taste modulators” (Givaudan SA, priority 2006, dated 2012).

Experiments:
[1] = test system: sweet sensitive panelists; experiment: Ranking test of sweetness isointensity (R-index), sensory panel; assay type: in vivo, human; settings: for sweetness equivalent to sucrose (isointensity): by interpolation; for sample sweetness (0.5% sucrose) / sample sweetness (p-ethoxybenzaldehyde, 75 ppm): nose clips
Method: (§1) The sensory evaluation was conducted using a ranking method. Samples at ambient temperature were randomly presented in 15 ml blind aliquots (unidentifiable by panelists). Panels consisted of 10 sweet sensitive subjects and samples were presented in 3 replications over 1 session. After tasting each sample, the mouth was rinsed thoroughly with water at ambient temperature prior to tasting the next sample. […] They were asked to rank the samples from low to high with respect to perceived sweet taste.
as §1, with “taste. […] From ranking-style sensory tests, a matrix of responses (see table X below) is constructed such that each cell contains the number of times a given sample was ranked at a particular location.” for “taste.”
Essentially, the R-index is a measure of difference between two samples. The R-index has a chance level of detection of 50%. […] The critical value is the statistically relevant value that the derived R-index must deviate from (i.e greater or less than) in order to be considered significant.

[2] = test system: sweet sensitive panelists; experiment: Paired comparison of sweetness versus sucrose, sensory panel; assay type: in vivo, human
[3] = molecular target: T1, transmembrane domains of TAS1R (Homo sapiens, UniProt Q7RTX0+Q8TE23, C757R); experiment: Identification of candidate sweetness enhancers that bind to the transmembrane domains; assay type: binding; settings: identified by the applicants as candidate sweetness enhancers
T1 sequence (Q8TE23 20-839): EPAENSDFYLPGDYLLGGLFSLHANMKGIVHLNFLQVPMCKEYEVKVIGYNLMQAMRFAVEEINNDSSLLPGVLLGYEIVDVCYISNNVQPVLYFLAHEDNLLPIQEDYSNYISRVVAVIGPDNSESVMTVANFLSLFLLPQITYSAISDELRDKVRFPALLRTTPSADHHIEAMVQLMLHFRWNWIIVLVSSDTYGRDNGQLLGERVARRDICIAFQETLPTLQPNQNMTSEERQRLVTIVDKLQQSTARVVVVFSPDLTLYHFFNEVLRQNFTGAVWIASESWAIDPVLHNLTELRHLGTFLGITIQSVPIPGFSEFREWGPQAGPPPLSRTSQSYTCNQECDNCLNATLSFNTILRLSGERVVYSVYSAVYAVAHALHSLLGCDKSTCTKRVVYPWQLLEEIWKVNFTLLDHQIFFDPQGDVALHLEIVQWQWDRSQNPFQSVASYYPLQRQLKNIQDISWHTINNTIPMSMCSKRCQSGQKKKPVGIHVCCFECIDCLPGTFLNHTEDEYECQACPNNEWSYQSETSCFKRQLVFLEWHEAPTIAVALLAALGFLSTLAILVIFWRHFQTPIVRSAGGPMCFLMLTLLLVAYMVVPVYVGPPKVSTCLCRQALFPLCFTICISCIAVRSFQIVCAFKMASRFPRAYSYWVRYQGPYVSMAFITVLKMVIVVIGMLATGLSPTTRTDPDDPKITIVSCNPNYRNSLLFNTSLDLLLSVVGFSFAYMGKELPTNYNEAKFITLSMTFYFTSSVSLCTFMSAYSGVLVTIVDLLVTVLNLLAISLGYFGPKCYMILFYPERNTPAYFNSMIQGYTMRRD
T1 sequence (Q7RTX0 21-852 C757R): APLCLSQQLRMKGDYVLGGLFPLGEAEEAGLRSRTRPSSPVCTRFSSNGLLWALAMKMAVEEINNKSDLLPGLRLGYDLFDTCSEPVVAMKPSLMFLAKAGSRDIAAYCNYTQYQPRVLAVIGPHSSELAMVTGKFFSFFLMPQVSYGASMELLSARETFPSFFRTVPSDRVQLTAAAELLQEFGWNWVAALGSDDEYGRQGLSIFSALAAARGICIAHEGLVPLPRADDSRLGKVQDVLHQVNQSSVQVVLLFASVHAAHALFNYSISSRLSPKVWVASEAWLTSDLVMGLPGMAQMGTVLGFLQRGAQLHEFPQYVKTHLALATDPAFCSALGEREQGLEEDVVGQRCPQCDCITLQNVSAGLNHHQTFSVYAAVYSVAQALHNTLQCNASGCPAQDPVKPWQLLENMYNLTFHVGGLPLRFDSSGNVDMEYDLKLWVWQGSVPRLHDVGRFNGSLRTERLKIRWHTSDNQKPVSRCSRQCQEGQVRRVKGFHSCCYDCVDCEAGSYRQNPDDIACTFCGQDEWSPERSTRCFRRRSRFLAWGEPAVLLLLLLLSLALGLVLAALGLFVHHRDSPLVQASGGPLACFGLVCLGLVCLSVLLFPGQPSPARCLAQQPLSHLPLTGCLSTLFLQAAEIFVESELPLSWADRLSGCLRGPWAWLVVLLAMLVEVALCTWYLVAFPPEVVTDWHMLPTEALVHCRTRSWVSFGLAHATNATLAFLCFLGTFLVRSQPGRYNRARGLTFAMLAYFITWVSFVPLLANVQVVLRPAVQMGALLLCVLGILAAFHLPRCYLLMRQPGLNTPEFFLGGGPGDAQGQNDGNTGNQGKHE

## C[C@@H]1O[C@@H](O[C@H]2[C@H](Oc3cc(O)c(C(=O)CCc4ccc(O)cc4)c(O)c3)O[C@H](CO)[C@@H](O)[C@@H]2O)[C@H](O)[C@H](O)[C@H]1O [NarDHC, naringin dihydrochalcone]
[1]; 60 ppm NarDHC in water
  sweetness equivalent to sucrose (isointensity): about 1.25 % sucrose
[2]; 45 ppm NarDHC in water vs 0% sucrose
  Result of comparison: weakly sweeter
[2]; 45 ppm NarDHC in water vs 0.5% sucrose
  Result of comparison: isosweet
[2]; 45 ppm NarDHC in water vs 1% sucrose
  Result of comparison: less sweet
[2]; 50 ppm NarDHC in water vs 0.5% sucrose
  Result of comparison: notably sweeter
[2]; 50 ppm NarDHC in water vs 1% sucrose
  Result of comparison: less sweet
[2]; 55 ppm NarDHC in water vs 0.5% sucrose
  Result of comparison: notably sweeter
[2]; 55 ppm NarDHC in water vs 1% sucrose
  Result of comparison: isosweet
[2]; 60 ppm NarDHC in water vs 1% sucrose
  Result of comparison: notably sweeter
[2]; 60 ppm NarDHC in water vs 1.5% sucrose
  Result of comparison: significantly less sweet
[3]
  binding to the transmembrane domains of TAS1R: bind to the transmembrane domains of TAS1R

## C[C@H](CC[C@@H](O[C@@H]1O[C@H](CO[C@@H]2O[C@H](CO)[C@@H](O)[C@H](O)[C@H]2O)[C@@H](O)[C@H](O)[C@H]1O[C@@H]1O[C@H](CO)[C@@H](O)[C@H](O)[C@H]1O)C(C)(C)O)[C@H]1CC[C@@]2(C)[C@@H]3CC=C4[C@@H](CC[C@H](O[C@@H]5O[C@H](CO[C@@H]6O[C@H](CO)[C@@H](O)[C@H](O)[C@H]6O)[C@@H](O)[C@H](O)[C@H]5O)C4(C)C)[C@]3(C)[C@H](O)C[C@]12C [mogroside V]
[3]
  binding to the transmembrane domains of TAS1R: bind to the transmembrane domains of TAS1R

## CCOc1ccc(C=O)cc1 [p-ethoxybenzaldehyde]
[1]; 0.5% sucrose sample ranked against 100 ppm p-ethoxybenzaldehyde in water
  sample sweetness (0.5% sucrose): isosweet
[1]; 0.5% sucrose sample ranked against 150 ppm p-ethoxybenzaldehyde in water
  sample sweetness (0.5% sucrose): less sweet
[1]; 7% sucrose and 75 ppm p-ethoxybenzaldehyde
  sweetness isointensity to sucrose: 8 % sucrose
[1]; 75 ppm in water vs 0.5% sucrose
  sample sweetness (p-ethoxybenzaldehyde, 75 ppm): less sweet
[1]; 75 ppm in water vs 1% sucrose
  sample sweetness (p-ethoxybenzaldehyde, 75 ppm): less sweet
[1]; 75 ppm p-ethoxybenzaldehyde in 7% sucrose vs 7% sucrose
  p-ethoxybenzaldehyde sample sweetness: sweeter
[1]; 75 ppm p-ethoxybenzaldehyde in 7% sucrose vs 8% sucrose
  p-ethoxybenzaldehyde sample sweetness: isosweet
[1]; 75 ppm p-ethoxybenzaldehyde in 7% sucrose vs 9% sucrose
  p-ethoxybenzaldehyde sample sweetness: less sweet
[1]; 75 ppm p-ethoxybenzaldehyde in 7% sucrose vs 10% sucrose
  p-ethoxybenzaldehyde sample sweetness: less sweet
[1]; 75 ppm p-ethoxybenzaldehyde in 7% sucrose vs 11% sucrose
  p-ethoxybenzaldehyde sample sweetness: less sweet
[1]; 75 ppm p-ethoxybenzaldehyde in water, below the detection threshold for sweet
  sweetness equivalent to sucrose (isointensity): 0.25 % sucrose
[1]; 100 ppm in water vs 150 ppm cyclamate
  sample sweetness (p-ethoxybenzaldehyde, 100 ppm): isosweet
[1]; 100 ppm in water vs 200 ppm cyclamate
  sample sweetness (p-ethoxybenzaldehyde, 100 ppm): less sweet
[1]; 100 ppm in water vs 250 ppm cyclamate
  sample sweetness (p-ethoxybenzaldehyde, 100 ppm): less sweet
[1]; 100 ppm p-ethoxybenzaldehyde added to 1700 ppm cyclamate
  cyclamate equivalent in sweetness added: 400 ppm cyclamate
[1]; 100 ppm p-ethoxybenzaldehyde in 1700 ppm cyclamate vs 1700 ppm cyclamate
  p-ethoxybenzaldehyde sample sweetness: sweeter
[1]; 100 ppm p-ethoxybenzaldehyde in 1700 ppm cyclamate vs 1900 ppm cyclamate
  p-ethoxybenzaldehyde sample sweetness: sweeter
[1]; 100 ppm p-ethoxybenzaldehyde in 1700 ppm cyclamate vs 2100 ppm cyclamate
  p-ethoxybenzaldehyde sample sweetness: isosweet
[1]; 100 ppm p-ethoxybenzaldehyde in 1700 ppm cyclamate vs 2300 ppm cyclamate
  p-ethoxybenzaldehyde sample sweetness: less sweet
[1]; 100 ppm p-ethoxybenzaldehyde in 1700 ppm cyclamate vs 2500 ppm cyclamate
  p-ethoxybenzaldehyde sample sweetness: less sweet
[1]; 600 ppm (A) vs 700 ppm (B) p-ethoxybenzaldehyde in water
  sweetness A versus B: less sweet than
[1]; 700 ppm (A) vs 800 ppm (B) p-ethoxybenzaldehyde in water
  sweetness A versus B: less sweet than
[1]; 800 ppm (A) vs 900 ppm (B) p-ethoxybenzaldehyde in water
  sweetness A versus B: less sweet than
[1]; 900 ppm (A) vs 1000 ppm (B) p-ethoxybenzaldehyde in water
  sweetness A versus B: less sweet than
[1]; 1700 ppm cyclamate+100 ppm p-ethoxybenzaldehyde
  cyclamate isointensity: 2100 ppm cyclamate

## C=C1C[C@@]23CC[C@H]4[C@@](C)(CCC[C@@]4(C)C(=O)O[C@@H]4O[C@H](CO)[C@@H](O)[C@H](O)[C@H]4O)[C@@H]2CC[C@]1(O[C@@H]1O[C@H](CO)[C@@H](O)[C@H](O[C@@H]2O[C@H](CO)[C@@H](O)[C@H](O)[C@H]2O)[C@H]1O[C@@H]1O[C@H](CO)[C@@H](O)[C@H](O)[C@H]1O)C3 [rebaudioside A]
[3]
  binding to the transmembrane domains of TAS1R: bind to the transmembrane domains of TAS1R

## C=C1C[C@@]23CC[C@H]4[C@@](C)(CCC[C@@]4(C)C(=O)O[C@@H]4O[C@H](CO)[C@@H](O)[C@H](O)[C@H]4O)[C@@H]2CC[C@]1(O[C@@H]1O[C@H](CO)[C@@H](O)[C@H](O)[C@H]1O)C3 [rubusoside]
[3]
  binding to the transmembrane domains of TAS1R: bind to the transmembrane domains of TAS1R

## C=C1C[C@@]23CC[C@H]4[C@@](C)(CCC[C@@]4(C)C(=O)O[C@@H]4O[C@H](CO)[C@@H](O)[C@H](O)[C@H]4O)[C@@H]2CC[C@]1(O[C@@H]1O[C@H](CO)[C@@H](O)[C@H](O)[C@H]1O[C@@H]1O[C@H](CO)[C@@H](O)[C@H](O)[C@H]1O)C3 [stevioside]
[3]
  binding to the transmembrane domains of TAS1R: bind to the transmembrane domains of TAS1R
